Our source for the melting point values is a melting point compilation (Tetko et al.; mined from patent text by program, amines drawn as free bases though some values may be those of a salt).

Residues, ends and D or L forms follow the SMILES beside them.

One may read the melting point as the temperature, or range, at which the solid turns liquid. For `CN1C(=O)C2(COc3cc4c(cc32)OCCO4)c2c(C(=O)NCc3ccc(F)cc3)cccc21` (stereo unspecified), the melting point is 149 to 150 °C.
The same measure for `COCc1nc2c(NCc3c(C)cccc3C)cc(C(=O)N(C)C)cc2n1C`: 156 to 157 °C.
The same measure for `O=C1CCC(N2C(=O)c3ccccc3C2=O)CC1`: 140 to 142 °C.
For the compound `Cc1ccc(-c2c(NS(=O)(=O)c3ccc(C(C)(C)C)cc3)ncnc2OCCOc2ccc(-c3nnn[nH]3)cc2)cc1`, the melting point is 165 to 166 °C.
The same measure for `CN1C(=O)CCC2(C)c3ccc(CC(=O)O)cc3CCC12` (stereo unspecified): 200 to 202 °C; for `N#Cc1sc2cc(N)ccc2c1Cl`: 158 to 160 °C.
`O=C(O)c1cn(-c2ccc(F)cc2)c2c(F)c(F)c(F)cc2c1=O`: the melting point was 261 to 263 °C.
The same measure for `COc1cc(OC)c(C2=NC(NC(=O)Nc3ccccc3C)C(=O)N(C)c3ccccc32)c(OC)c1` (stereo unspecified): 50 °C; for `CC(C)(C)OC(=O)NC(C(=O)NOC(c1ccccc1)(c1ccccc1)c1ccccc1)C1(O)CCSC1` (stereo unspecified): 220 to 225 °C; for `O=C(CC1CCOCC1)c1c(O)c2cccnc2n(-c2ccccc2)c1=O`: 198 to 203 °C.
The result for `Cc1ccc(C(=O)O)c(F)c1C1=NC(C)(C(C)C)C(=O)N1` (stereo unspecified) reads 164 to 170 °C; that for `O=c1ccn([C@H]2[C@H](O)[C@H](O)CC[C@H]2O)c(=O)[nH]1` (racemic), 246 °C.
The result for `CCCc1nc2c(N)nc(C)c(C)c2n1CCCCS(=O)(=O)N(C)C` reads 127 to 128 °C; that for `Cc1cc(C)c(C[C@@H](C(=O)[C@H](Cc2c(C)cc(C)cc2C)N2C(=O)c3ccccc3C2=O)N2C(=O)c3ccccc3C2=O)c(C)c1`, 142 to 143 °C; that for `O=C(Nc1ccc(N2CCOCC2=O)cc1)[C@H]1CCCN1C(=O)Nc1ccc(Cl)cc1`, 228 °C.
As to `CCOC(=O)C1=C(COCC2COC(C)(C)O2)NC(C)=C(C(=O)OC)C1c1cccc(Cl)c1Cl` (stereo unspecified), the melting point lay within 135 to 137 °C.
Turning to `c1ccc(CSc2nc3ccccn3n2)cc1`, the melting point lay within 79 to 81 °C.
Compound `CCOC(=O)c1cc(OC(C)=O)c2cc(OC)ccc2c1` showed a melting point of 104 °C.
The same measure for `COC(=O)c1cccn1Cc1ccccc1N`: 95 to 97 °C; for `CCc1cc(OCc2ccc(C(=O)NS(=O)(=O)c3ccccc3C)cc2)c2c(n1)CCCC2`: 266 to 268 °C.
The result for `COc1ccc2c(c1)c(CC(=O)N(C(=O)NC1CCCCC1)C1CCCCC1)c(C)n2-c1ncnc2cc(Cl)ccc12` reads 105 to 107 °C; that for `COC(=O)C(Cc1ccccc1)NC(=O)C(CC(=O)O)NC(=O)CN` (stereo not drawn) (H-Gly-Asp-Phe-OMe; configuration not given here), 233 to 235 °C; that for `COC(=O)CC[C@H](NC(=O)c1ccc(NCC(=O)OCc2ccccc2)cc1)C(=O)OC`, 82 °C.
The result for `CC1(C)C(C=C(Cl)Cl)C1C(=O)OC(c1cccc(Oc2ccc(F)cc2)n1)C(F)(F)F` (stereo unspecified) reads 69 to 72 °C.
`CCCn1cc(Cc2ccc(C(=O)NS(=O)(=O)c3ccccc3C)cc2OC)c2cc(CCCC(=O)N(C)C)ccc21` registered a melting point of 94 to 96 °C.
The same measure for `CSc1nn2c(NCCN(C)C)cc(C)nc2c1S(=O)(=O)c1ccccc1`: 190 to 191 °C; for `CC(=O)NC[C@H]1CN(c2ccc(N3CCC(c4nnn[nH]4)CC3)c(F)c2)C(=O)O1`: 148 to 150 °C; for `COc1ccc(-c2cnn3c(N)c(-c4ccc(F)c(F)c4)c(C)nc23)cc1OC`: 230 to 235 °C.
The same measure for `CC(=O)Oc1ccccc1-c1ccc(C(C)=O)cc1`: 116 to 117 °C.
The result for `CCCn1nc(-c2ccc(F)cc2)c(-c2ccc(S(C)(=O)=O)cc2)cc1=O` reads 155 to 157 °C; that for `O=c1[nH]c2cc(Cl)ccc2c(O)c1-c1cccc(/C=C/c2ccccc2)c1`, 320 to 324 °C.
For `OCc1c(F)c(Cl)c(F)c(Cl)c1F`, the melting point was in the range of 67 to 68 °C.
The same measure for `COc1ccc2c3c(c(=O)oc2c1)CN(CCc1ccccc1)CC3`: 135 to 136 °C; for `CN(C)C(=O)NCC1(C)OCCc2c1[nH]c1ccccc21` (stereo unspecified): 153 to 155 °C.
The result for `CCC(=O)c1cccc(Oc2nc(OC)cc(OC)n2)c1C(=O)OC` reads 120 to 122 °C; that for `COc1ccc(-c2ncnnc2-c2ccc(OC)cc2)cc1`, 118 to 120 °C; that for `COc1cc2c(cc1Br)c1ccccc1n2CCC(C)CCCC(C)C` (stereo unspecified), 55 °C.
The result for `Cc1c(-c2ccccc2)nc(C(F)(F)F)oc1=O` reads 70 °C; that for `CCOn1nnc2ccc(C(C)n3ccnc3)cc21` (stereo unspecified), 81.1 °C.
As to `C=C(c1ccc(N(CC)CC)cc1)c1ccc(N(CC)CC)cc1`, the melting point was 100 to 102 °C.
The result for `O=S(=O)(c1ccccc1)n1c2cc(O)c(O)cc2c2ccc(O)c(O)c21` reads 176 to 178 °C.
With `O=C(O)Cc1ccc(CNC(=O)C2Cc3ccccc3N2S(=O)(=O)c2ccc(-c3cccc(C(F)(F)F)c3)cc2)cc1` (stereo unspecified), the melting point came to 90 °C.
The result for `CC1(CO)Cc2nnc(-c3ccc(-c4ccc(F)cc4)cc3C(F)(F)F)n2CCS1` (stereo unspecified) reads 202 to 204 °C; that for `Nc1ccc(S(=O)(=O)n2cc(CC3CCNCC3)c3cc(F)ccc32)cc1`, 162 to 164 °C.
The same measure for `N#CCc1cccc2c(C3CCCCC3)nccc12`: 85.3 to 85.6 °C.
The same measure for `COc1ccc2c(c1)N(C1=CCCN1C1=NCCC1)c1ccccc1S2`: 151 to 153 °C; for `Cc1cc(N2CCC(N3CCCC3C)C2)ccc1C(=O)NC1CCOCC1` (stereo unspecified): 147 °C; for `O=C(O)CCc1cn(Cc2ccc(OCc3csc(-c4ccccc4)n3)cc2)nc1-c1ccccc1`: 132 to 133 °C.
In the case of `O=C1c2ccccc2C(=O)N1OCc1ccc(F)c(Oc2ccccc2)c1`, the melting point came to 88.2 °C.
The same measure for `Fc1cc(F)c(C(Cl)(Cl)Cl)cc1C(Cl)(Cl)Cl`: 77 to 79 °C; for `Oc1cc(F)cc(C2(O)CCOCC2)c1`: 158 to 160 °C.
The result for `N#Cc1ccc(O[C@H]2CC[C@H](NC(=O)Nc3ccc(OC(F)(F)F)cc3)CC2)cc1` reads 186 to 189 °C; that for `COC(=O)CCc1cc2c(s1)-n1c(C)nnc1C(C)N=C2c1ccccc1Cl` (stereo unspecified), 131 to 132 °C; that for `COCC(=O)OC(CC1CC1)c1ccc(Cl)c2nc3n(c12)CCCN3c1ccc(Cl)cc1Cl` (stereo unspecified), 159 to 161 °C.
The result for `COc1cc(-n2ccc(C)n2)ccc1C(=O)N1Cc2ccc(CN(C)C)n2Cc2ccccc21` reads 196 to 198 °C.
On to `O=[N+]([O-])c1cc(N=Nc2ccc(S(=O)(=O)F)cc2)cc(Cl)c1O`, for which the melting point lay within 129 to 133 °C.
`COC(=O)Cc1ccccc1OCc1ccccc1` registered a melting point of 74 to 75 °C.
The result for `CCC[C@H]1CC[C@H](CCc2cc(F)c(C#N)c(F)c2)CC1` reads 27.3 °C.
Compound `O=c1[nH]c2ncc(-c3ccc(O)cc3)nc2n1C1CCOCC1` yielded a melting point of 382 to 383 °C.
The result for `CC(C)OC(=O)C1Oc2ccccc2Cc2ccccc2O1` reads 94 to 97 °C; that for `Cc1ccc(COC(=O)NC(CO)Cc2ccc(O)cc2)cc1` (stereo unspecified), 128 to 129 °C; that for `CS(=O)(=O)N[C@@H](CCCCN)C(=O)NC[C@H](CC1(C(=O)N[C@@H](Cc2ccc(O)cc2)C(=O)O)CCCC1)C(=O)O`, 237 to 238 °C.
The result for `CC(C)(Cn1c(CO)nc2c(N)nc3ccccc3c21)C(N)=O` reads 201 to 203 °C; that for `CCNC(=O)N(CC)C(=O)Nc1ccn(Cc2ccccc2Cl)c(=O)c1NC(=O)N[C@@H](CC(=O)O)c1ccc(C)cc1`, 128 to 130 °C.
The result for `CCNCC1CCN(c2c(F)cc3c(=O)c(C(=O)O)cn(C4(C)CC4)c3c2F)C1` (stereo unspecified) reads 261 to 263 °C; that for `CC(O)CN1CCN(c2cccccc2=O)CC1` (stereo unspecified), 92 to 93 °C.
Regarding `CNCCOc1cccc2c1CC(=O)N2`, the melting point was 153 to 156 °C.
The result for `CCN(CC)CCCNC(=O)c1ccc(S(N)(=O)=O)cc1` reads 122 to 123 °C; that for `OCc1ccc(-c2ccc(-c3cn([C@H]4CN5CCC4CC5)nn3)cc2)cc1`, 250 °C; that for `Cc1cc(C)c(C(=O)P(=S)(C(=O)c2c(C)cc(C)cc2C)c2ccccc2)c(C)c1`, 123 °C.
The same measure for `Cc1ncc(-c2ccc([C@H](C)N3CC[C@](CC(C)(C)O)(c4ccccc4)OC3=O)cc2)cn1`: 112 to 115 °C.
The same measure for `Nc1cn(-c2cncc(F)c2)nc1Br`: 164 to 165 °C; for `C#CCC(C(=COC)c1cccnc1)c1ccc(Cl)cc1Cl` (stereo unspecified): 96 to 97 °C; for `COc1ccc2ncc(C#N)c(Nc3cc(O)c(Cl)cc3F)c2c1`: 228 to 230 °C.
Take `CCC(Oc1cnc(Cl)c(Cl)c1)C(=O)NC(C)(C)C#CCO` (stereo unspecified): the melting point was in the range of 129 to 131 °C.
The compound `O=C(O)C1Cc2c(c(Cl)cc3c(-c4cccc(Cl)c4)noc23)O1` (stereo unspecified) yielded a melting point of 168 to 169 °C.
The result for `CS(=O)(=O)C(=C1CN(C(c2ccc(Cl)cc2)c2ccc(Cl)cc2)C1)c1cccc(C(=O)NN2CCCCC2)c1` reads 175 °C; that for `CCOC(=O)NC(=S)Nc1cc(Br)ccn1`, 107 to 110 °C; that for `COc1cc(C(=O)O)ccc1Cn1cc(CC(C)C(=O)N(C)C)c2ccc(C(=O)NCC3CCCC3)cc21` (stereo unspecified), 120 to 122 °C.
The result for `COC(=O)c1cncc(OC)n1` reads 73 °C; that for `CN(C)Cc1cc2c(cc1O)CCC1C2CCC2(C)C(=O)CCC12` (stereo unspecified), 172 to 173 °C; that for `CC1(C)CCC(C)(C)c2cc3cc(-c4csc(C(=O)O)c4)ccc3cc21`, 207 to 208 °C.
The same measure for `COC(=O)c1[nH]c2c(C)ccc(C)c2c1C=O`: 174 to 175 °C; for `CCc1n[nH]c(CC)c1CCCCCCOc1ccc(OC)cc1[N+](=O)[O-]`: 103 to 105 °C; for `CCCCCCCCCCOc1ccc(Cc2cnc(N)nc2N)cc1OC`: 169 °C.
Regarding `CC(=O)Nc1cccc(N(C)C)n1`, the melting point is 118 to 119 °C.
